# pEC50: −log10 of the molar value. Positions of bridges follow the written chain, without caps; N, C: chain ends. Residues, ends and D or L forms follow the SMILES beside them.
# Assays:
# [1] = tested on: Omicron BA.2 S pseudotyped virus on VeroE6 cells; format: cell-based, SARS-CoV-2
# [2] = tested on: SARS-CoV-2 S (Wuhan-Hu-1) pseudo-typed VSV on VeroE6 cells; format: cell-based
# [3] = tested on: Omicron (B.1.1.529) BA.1 S pseudotyped virus on VeroE6 cells; format: cell-based, SARS-CoV-2
# [4] = tested on: SARS-CoV-2 ancestral Wuhan strain in HEK293 ACE2+ TMPRSS2+ cells; conditions: 24 h
# [5] = tested on: Beta (B.1.351) S pseudotyped virus on VeroE6 cells; format: cell-based, SARS-CoV-2
# [6] = tested on: Delta (B.1.617.2) S pseudotyped virus on VeroE6 cells; format: cell-based, SARS-CoV-2
# [7] = tested on: Alpha (B.1.1.7) S pseudotyped virus on VeroE6 cells; format: cell-based, SARS-CoV-2
# [8] = tested on: WIV-16-S pseudovirus on VeroE6 cells; format: cell-based
# [9] = tested on: SARS1-S pseudovirus on VeroE6 cells; format: cell-based
# Omicron BA.1 and BA.2 = conditions: cited from earlier work
# Omicron BA.1 = conditions: cited from earlier work
# Omicron BA.2 = conditions: cited from earlier work
compound,measurement,setting,value
CC[C@H](C)[C@@H]1NC(=O)[C@H](CCC(N)=O)NC(=O)[C@H](CCC(=O)O)NC(=O)[C@H](CCCNC(=N)N)NC(=O)[C@@H]2CCCN2C(=O)[C@H](CCCNC(=N)N)NC(=O)[C@H](CCCNC(=N)N)NC(=O)[C@H](Cc2ccc(O)cc2)NC(=O)CSC[C@@H](C(=O)NCC(N)=O)NC(=O)[C@H](Cc2ccccc2)NC(=O)[C@H](C(C)C)NC(=O)[C@H](Cc2c[nH]c3ccccc23)NC(=O)[C@H](CC(C)C)NC(=O)[C@H](CO)NC(=O)CNC(=O)[C@H]([C@@H](C)CC)NC(=O)[C@H]([C@@H](C)CC)NC1=O [Peptide S1b3inL1] ({CH2CO}-YRRPREQIIIGSLWVFCG-NH2; thioether N-17),"fluctuation of EC50, Omicron BA.2",[1],2.1 fold
same,pseudoviral neutralization activity (in words),[2],submicromolar concentrations
same,"fluctuation of EC50, Omicron BA.1",[3],3.1 fold
same,pEC50,[4],5.28
same,"fluctuation of EC50, Beta",[5],3.1 fold
same,"fluctuation of EC50, Delta",[6],2.1 fold
same,"fluctuation of EC50, Alpha",[7],1.5 fold
same,"change of infection inhibition, WIV-16-S",[8],4.1 fold
same,"change of infection inhibition, SARS1-S",[9],1.3 fold
Cilgavimab [reference compound],decrease in activity,Omicron BA.1 and BA.2,20 fold
Sotrovimab,loss in potency against Omicron BA.1,Omicron BA.1,threefold
same,loss in potency against Omicron BA.2,Omicron BA.2,27 fold

# Reference: paper PMC10293842 (Proceedings of the National Academy of Sciences of the …, 2023)
